According to patent US12172959B2, “Mono- or di-substituted indole derivatives as dengue viral replication inhibitors” (priority 2015, dated 2024):

How the values were obtained:
[1] = Chiral stability at pH 7.4 (enantiomeric excess by Chiral SFC after incubation); assay type: physicochemical; conditions: 5 μM
Description: The chiral stability of Enantiomer 1A (R=OMe) was evaluated by determination of the enantiomeric excess (ee %) after incubation for 24 h and 48 h in a buffered solution at pH 7.4 at 40° C. and 60° C. To assess the influence of the methoxy-substituent of Enantiomer 1A (R=OMe) on the stability against racemization, the chiral stability of Enantiomer 1′A (R=H) was tested under the same conditions. To this end, 5 μM buffered (pH=7.4) solutions of 1A and 1′A were prepared by mixing 25 μL of a 100 μM solution of 1A or 1′A in DMSO with 475 μL aqueous buffer pH 7.4. Samples were taken 24 h and 48 h after incubation at 40° C. and 60° C. The analytical samples were analyzed by Chiral SFC (MS detection) and the chiral purity was expressed as the enantiomeric excess (ee %=% enantiomer A−% enantiomer B).

[2] = system: DENV-1 strain TC974#666; assay: Tetravalent RT-qPCR assay Protocol A, serotype 1; assay type: cell-based; conditions: Dengue virus, DENV1, 72 h, RT-qPCR serotype 1 TC974#666, Vero cells, day 3
In short: (§1)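 Vero cells in MEM with 2% FCS were infected with DENV in the presence of compound and incubated for 3 days at 37° C. Lysates underwent RT and duplex qPCR for the viral 3′UTR and β-actin. EC50 came from ΔΔCp normalized to β-actin, and CC50 from the β-actin signal.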

[3] = system: DENV-2 strain 16681; assay: Tetravalent RT-qPCR assay Protocol A, serotype 2; assay type: cell-based; conditions: Dengue virus, DENV2, 72 h; Protocol A, RT-qPCR serotype 2 16681, Vero cells, day 3; read-out: EC50
In short: as §1

[4] = system: DENV-3 strain H87; assay: Tetravalent RT-qPCR assay Protocol A, serotype 3; assay type: cell-based; conditions: Dengue virus, DENV3, 72 h, RT-qPCR serotype 3 H87, Vero cells, day 3
In short: as §1

[5] = system: DENV-4 strain H241; assay: Tetravalent RT-qPCR assay Protocol A, serotype 4 H241; assay type: cell-based; conditions: Dengue virus, DENV4, 72 h; Protocol A, RT-qPCR serotype 4 H241, Vero cells, day 3; read-out: EC50
In short: as §1

[6] = in vitro; assay type: cell-based; conditions: African green monkey, CC50
In short: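 Vero cells (10000/well) in MEM with 2% FCS were preincubated overnight with compound, then infected with DENV-1, -2, -3 or -4 (dose set to Cp ~22-24) and cultured 3 days at 37 °C. Duplex RT-qPCR measured viral 3′UTR against β-actin. EC50 by ΔΔCp; CC50 also derived.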

| SMILES | ee % ([1]; buffered solution pH 7.4, 40° C., 24 h) [%] | ee % ([1]; buffered solution pH 7.4, 40° C., 48 h) [%] | ee % ([1]; buffered solution pH 7.4, 60° C., 24 h) [%] | ee % ([1]; buffered solution pH 7.4, 60° C., 48 h) [%] | EC50 [2] [nM] | EC50 [3] [nM] | EC50 [4] [nM] | EC50 [5] [nM] | CC50 at 3 days [6] [nM] |
| --- | --- | --- | --- | --- | --- | --- | --- | --- | --- |
| COc1cc(NC(C(=O)c2c[nH]c3cc(F)ccc23)c2ccc(Cl)cc2OC)cc(S(C)(=O)=O)c1 (single isomer, unassigned) [Compound 1A, 2-(4-chloro-2-methoxyphenyl)-1-(6-fluoro-1H-indol-3-yl)-2-((3-methoxy-5-(methylsulfonyl)phenyl)amino)ethanone] | 100 | 100 | 95 | 88 | 2.5 | 0.28 | 23 | 93 | 5000 |
| COc1cc(NC(C(=O)c2c[nH]c3c(C)c(F)ccc23)c2ccc(Cl)cc2OC)cc(S(C)(=O)=O)c1 (single isomer, unassigned) [Compound 2A, 2-(4-chloro-2-methoxyphenyl)-1-(6-fluoro-7-methyl-1H-indol-3-yl)-2-((3-methoxy-5-(methylsulfonyl)phenyl)amino)ethanone] |  |  |  |  | 2.4 | 0.24 | 19 | 83 | 5300 |
| COc1cc(NC(C(=O)c2c[nH]c3cc(OC)c(C)cc23)c2ccc(Cl)cc2OC)cc(S(C)(=O)=O)c1 (single isomer, unassigned) [Compound 4A, 2-(4-chloro-2-methoxyphenyl)-2-((3-methoxy-5-(methyl-sulfonyl)phenyl)amino)-1-(6-methoxy-5-methyl-1H-indol-3-yl)ethanone] |  |  |  |  | 0.97 | 0.2 | 15 | 53 |  |
| COc1cc(NC(C(=O)c2c[nH]c3cc(OC)c(F)cc23)c2ccc(Cl)cc2OC)cc(S(C)(=O)=O)c1 (single isomer, unassigned) [Compound 5A, 2-(4-chloro-2-methoxyphenyl)-1-(5-fluoro-6-methoxy-1H-indol-3-yl)-2-((3-methoxy-5-(methylsulfonyl)phenyl)amino)ethanone] |  |  |  |  | 3.6 | 0.34 | 53 | 100 | 5200 |
| COc1cc(NC(C(=O)c2c[nH]c3c(C)c(OC)ccc23)c2ccc(Cl)cc2OC)cc(S(C)(=O)=O)c1 (single isomer, unassigned) [Compound 6A, 2-(4-chloro-2-methoxyphenyl)-2-((3-methoxy-5-(methyl-sulfonyl)phenyl)amino)-1-(6-methoxy-7-methyl-1H-indol-3-yl)ethanone] |  |  |  |  | 1.6 | 0.11 | 19 | 95 | > 10000 |
